{"source": "patent US9738655B2", "about": "“Tetrahydroisoquinolines containing substituted azoles as factor XIa inhibitors” (BRISTOL-MYERS SQUIBB COMPANY, priority 2013, dated 2017)", "key": {"[1]": {"biological_target": "purified human plasma kallikrein (Homo sapiens (Human), UniProt P03952)", "sequence (P03952 391-638)": "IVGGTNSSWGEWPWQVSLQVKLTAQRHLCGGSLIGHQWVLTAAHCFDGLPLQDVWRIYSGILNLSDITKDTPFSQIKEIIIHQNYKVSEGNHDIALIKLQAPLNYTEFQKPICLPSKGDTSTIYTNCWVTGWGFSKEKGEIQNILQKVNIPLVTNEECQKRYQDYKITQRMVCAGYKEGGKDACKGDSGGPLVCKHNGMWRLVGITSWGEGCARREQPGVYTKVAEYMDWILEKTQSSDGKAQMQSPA", "sequence (P03952 20-390 partner)": "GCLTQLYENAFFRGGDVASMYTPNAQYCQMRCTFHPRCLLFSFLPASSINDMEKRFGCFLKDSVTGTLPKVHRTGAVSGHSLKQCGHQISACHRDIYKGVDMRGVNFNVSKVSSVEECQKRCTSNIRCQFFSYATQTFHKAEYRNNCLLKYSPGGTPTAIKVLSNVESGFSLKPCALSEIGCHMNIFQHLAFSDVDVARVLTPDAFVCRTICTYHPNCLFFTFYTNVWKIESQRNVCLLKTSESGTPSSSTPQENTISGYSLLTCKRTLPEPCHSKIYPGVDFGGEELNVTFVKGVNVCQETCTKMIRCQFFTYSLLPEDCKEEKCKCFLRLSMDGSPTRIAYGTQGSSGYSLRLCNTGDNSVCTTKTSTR", "test": "Plasma kallikrein enzyme inhibition assay (chromogenic substrate S-2302)", "type": "biochemical"}, "[2]": {"biological_target": "purified human Factor XIa (Homo sapiens (Human), UniProt P03951)", "sequence (P03951 388-625)": "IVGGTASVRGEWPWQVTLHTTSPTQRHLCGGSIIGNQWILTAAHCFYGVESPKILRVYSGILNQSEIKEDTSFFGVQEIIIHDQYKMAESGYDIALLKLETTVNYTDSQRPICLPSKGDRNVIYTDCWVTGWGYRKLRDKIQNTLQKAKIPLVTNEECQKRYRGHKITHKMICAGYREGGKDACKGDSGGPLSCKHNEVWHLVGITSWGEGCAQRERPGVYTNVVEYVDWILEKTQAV", "sequence (P03951 19-387 partner)": "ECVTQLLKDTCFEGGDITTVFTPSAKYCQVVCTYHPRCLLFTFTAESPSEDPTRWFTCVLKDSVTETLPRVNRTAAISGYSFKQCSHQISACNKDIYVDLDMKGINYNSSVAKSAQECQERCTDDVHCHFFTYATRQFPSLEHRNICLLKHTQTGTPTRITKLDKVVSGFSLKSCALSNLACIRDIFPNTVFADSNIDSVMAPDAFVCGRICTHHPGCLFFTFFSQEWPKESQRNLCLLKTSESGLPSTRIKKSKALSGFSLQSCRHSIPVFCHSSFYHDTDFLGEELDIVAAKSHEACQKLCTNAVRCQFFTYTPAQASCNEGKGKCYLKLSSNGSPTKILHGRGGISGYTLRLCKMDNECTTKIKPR", "test": "Factor XIa enzyme inhibition assay (chromogenic substrate S-2366)"}, "[3]": {"conditions": "measured at 25° C. (no asterisk)"}, "[4]": {"conditions": "read-out: Factor XIa Ki, measured at 25° C."}}, "note": "pKi: −log10 of the molar value. Where a name gives a salt, the structure may show the parent alone. Read-outs that look alike come from different tables or passages of the source."}
{"smiles": "COC1CCN(c2cccc3c2CCN(C(=O)c2cc(-c4cccc(Cl)c4F)no2)C3C(=O)Nc2ccc(C(=O)O)cc2)CC1", "note": "(racemic) [Example 268, 4-(2-(3-(3-chloro-2-fluorophenyl)isoxazole-5-carbonyl)-5-(4-methoxypiperidin-1-yl)-1,2,3,4-tetrahydroisoquinoline-1-carboxamido)benzoic acid, TFA salt]", "values": [{"measurement": "pKi", "setting": "[1]; measured at 37° C. (*)", "value": 6.75}, {"measurement": "pKi", "setting": "[2]", "value": 5.85}]}
{"smiles": "COC1CCN(c2cccc3c2CCN(C(=O)c2cc(-c4cccc(Cl)c4F)ns2)C3C(=O)Nc2ccc(C(=O)O)cc2)CC1", "note": "(racemic) [Example 269, 4-(2-(3-(3-chloro-2-fluorophenyl)isothiazole-5-carbonyl)-5-(4-methoxypiperidin-1-yl)-1,2,3,4-tetrahydroisoquinoline-1-carboxamido)benzoic acid, TFA salt]", "values": [{"measurement": "pKi", "setting": "[1]; [3]", "value": 6.69}, {"measurement": "pKi", "setting": "[2]", "value": 7.48}]}
{"smiles": "COC1CCN(c2cccc3c2CCN(C(=O)c2cnc(-c4cccc(Cl)c4F)s2)C3C(=O)Nc2ccc(C(=O)O)cc2)CC1", "note": "(racemic) [Example 270, 4-(2-(2-(3-chloro-2-fluorophenyl)thiazole-5-carbonyl)-5-(4-methoxypiperidin-1-yl)-1,2,3,4-tetrahydroisoquinoline-1-carboxamido)benzoic acid, TFA salt]", "values": [{"measurement": "pKi", "setting": "[1]; [3]", "value": 6.57}, {"measurement": "pKi", "setting": "[2]", "value": 7.69}]}
{"smiles": "COC1CCN(c2cccc3c2CCN(C(=O)c2cn(-c4cccc(Cl)c4F)cn2)C3C(=O)Nc2ccc(C(=O)O)cc2)CC1", "note": "(racemic) [Example 271, 4-(2-(1-(3-chloro-2-fluorophenyl)-1H-imidazole-4-carbonyl)-5-(4-methoxypiperidin-1-yl)-1,2,3,4-tetrahydroisoquinoline-1-carboxamido)benzoic acid, TFA salt]", "values": [{"measurement": "pKi", "setting": "[1]; [3]", "value": 8.12}, {"measurement": "pKi", "setting": "[2]", "value": "> 8.30"}]}
{"smiles": "CN1CCN(c2cccc3c2CCN(C(=O)c2cn(-c4cccc(Cl)c4F)nn2)C3C(=O)Nc2ccc(C(=O)O)cc2)CC1=O", "note": "(racemic) [Example 274, 4-(2-(1-(3-chloro-2-fluorophenyl)-1H-1,2,3-triazole-4-carbonyl)-5-(4-methyl-3-oxopiperazin-1-yl)-1,2,3,4-tetrahydroisoquinoline-1-carboxamido)benzoic acid, TFA salt]", "values": [{"measurement": "pKi", "setting": "[1]; [3]", "value": 8.31}, {"measurement": "pKi", "setting": "[2]", "value": "> 8.30"}]}
{"smiles": "COc1cccc2c1CCN(C(=O)c1cn(-c3cccc(Cl)c3F)nn1)C2C(=O)Nc1ccc(C(=O)O)cc1", "note": "(racemic) [Example 275, 4-(2-(1-(3-chloro-2-fluoroplienyl)-1H-1,2,3-triazole-4-carbonyl)-5-methoxy-1,2,3,4-tetrahydroisoquinoline-1-carboxamido)benzoic acid, TFA salt]", "values": [{"measurement": "pKi", "setting": "[1]; [3]", "value": 7.93}, {"measurement": "pKi", "setting": "[2]", "value": 7.97}]}
{"smiles": "CN1CCN(c2cccc3c2CCN(C(=O)c2cn(-c4cccc(Cl)c4F)cn2)C3C(=O)Nc2ccc(C(=O)O)cc2)CC1=O", "note": "(racemic) [Example 284, 4-(2-(1-(3-chloro-2-fluorophenyl)-1H-imidazole-4-carbonyl)-5-(4-methyl-3-oxopiperazin-1-yl)-1,2,3,4-tetrahydroisoquinoline-1-carboxamido)benzoic acid, TFA salt]", "values": [{"measurement": "pKi", "setting": "[1]; [3]", "value": 8.20}, {"measurement": "pKi", "setting": "[2]", "value": "> 8.30"}]}
{"smiles": "COC1CCN(c2cccc3c2CCN(C(=O)c2cnn(-c4cccc(Cl)c4F)c2N)C3C(=O)Nc2ccc(C(=O)O)cc2)CC1", "note": "(racemic) [Example 309, 4-(2-(5-amino-1-(3-chloro-2-fluorophenyl)-1H-pyrazole-4-carbonyl)-5-(4-methoxypiperidin-1-yl)-1,2,3,4-tetrahydroisoquinoline-1-carboxamido)benzoic acid, 2 TFA salt]", "values": [{"measurement": "pKi", "setting": "[1]; [3]", "value": 7.54}, {"measurement": "pKi", "setting": "[2]", "value": "> 8.30"}]}
{"smiles": "COC1CCN(c2cccc3c2CCN(C(=O)c2coc(-c4cccc(Cl)c4F)n2)C3C(=O)Nc2ccc(C(=O)O)cc2)CC1", "note": "(racemic) [Example 310, 4-(2-(2-(3-chloro-2-fluorophenyl)oxazole-4-carbonyl)-5-(4-methoxypiperidin-1-yl)-1,2,3,4-tetrahydroisoquinoline-1-carboxamido)benzoic acid, TFA salt]", "values": [{"measurement": "pKi", "setting": "[1]; [3]", "value": 6.21}, {"measurement": "pKi", "setting": "[2]", "value": 7.09}]}
{"smiles": "COC1CCN(c2cccc3c2CCN(C(=O)c2cc(-c4cccc(Cl)c4)n[nH]2)C3C(=O)Nc2ccc(C(=O)O)cc2)CC1", "note": "(racemic) [Example 311, 4-(2-(3-(3-chlorophenyl)-1H-pyrazole-5-carbonyl)-5-(4-methoxypiperidin-1-yl)-1,2,3,4-tetrahydroisoquinoline-1-carboxamido)benzoic acid, TFA salt]", "values": [{"measurement": "pKi", "setting": "[1]; [3]", "value": 6.10}, {"measurement": "pKi", "setting": "[2]", "value": 7.73}]}
{"smiles": "COC1CCN(c2cccc3c2CCN(C(=O)c2cn(-c4c(F)ccc(Cl)c4F)cn2)C3C(=O)Nc2ccc(C(=O)O)cc2)CC1", "note": "(racemic) [Example 312, 4-(2-(1-(3-chloro-2,6-difluorophenyl)-1H-imidazole-4-carbonyl)-5-(4-methoxypiperidin-1-yl)-1,2,3,4-tetrahydroisoquinoline-1-carboxamido)benzoic acid, TFA salt]", "values": [{"measurement": "pKi", "setting": "[1]; [3]", "value": 7.56}, {"measurement": "pKi", "setting": "[2]", "value": "> 8.30"}]}
{"smiles": "COC1CCN(c2cccc3c2CCN(C(=O)c2cnn(-c4ccncc4)c2N)C3C(=O)Nc2ccc(C(=O)O)cc2)CC1", "note": "(racemic) [Example 313, 4-(2-(5-amino-1-(pyridin-4-yl)-1H-pyrazole-4-carbonyl)-5-(4-methoxypiperidin-1-yl)-1,2,3,4-tetrahydroisoquinoline-1-carboxamido)benzoic acid, TFA salt]", "values": [{"measurement": "pKi", "setting": "[1]; measured at 37° C. (*)", "value": "< 5.22"}, {"measurement": "pKi", "setting": "[2]", "value": 5.32}]}
{"smiles": "CN(C)C1CCN(c2cccc3c2CCN(C(=O)c2cn(-c4cccc(Cl)c4F)nn2)[C@@H]3C(=O)Nc2ccc(C(=O)O)cc2)CC1", "note": "(single isomer, unassigned) [Example 49, bis-TFA salt]", "values": [{"measurement": "pKi", "setting": "[1]; [3]", "value": 8.86}, {"measurement": "pKi", "setting": "[2]; [4]", "value": "> 8.30"}]}
{"smiles": "CN(C)C1CCN(c2cccc3c2CCN(C(=O)c2cnn(-c4cccc(Cl)c4F)c2)[C@H]3C(=O)Nc2ccc(C(=O)O)cc2)CC1", "note": "(single isomer, unassigned) [Example 51, bis-TFA salt]", "values": [{"measurement": "pKi", "setting": "[1]; [3]", "value": 6.47}, {"measurement": "pKi", "setting": "[2]; [4]", "value": 7.26}]}
{"smiles": "CN(C)C1CCN(c2cccc3c2CCN(C(=O)c2cnn(-c4cccc(Cl)c4F)c2)[C@@H]3C(=O)Nc2ccc(C(=O)O)cc2)CC1", "note": "(single isomer, unassigned) [Example 52, bis-TFA salt]", "values": [{"measurement": "pKi", "setting": "[1]; [3]", "value": 8.75}, {"measurement": "pKi", "setting": "[2]; [4]", "value": "> 8.30"}]}
{"smiles": "CN(C)C1CCN(c2cccc3c2CCN(C(=O)c2cn(-c4cccc(Cl)c4F)cn2)[C@H]3C(=O)Nc2ccc(C(=O)O)cc2)CC1", "note": "(single isomer, unassigned) [Example 54, bis-TFA salt]", "values": [{"measurement": "pKi", "setting": "[1]; [3]", "value": 7.30}, {"measurement": "pKi", "setting": "[2]; [4]", "value": 8.05}]}
{"smiles": "CN(C)C1CCN(c2cccc3c2CCN(C(=O)c2cn(-c4cccc(Cl)c4F)cn2)[C@@H]3C(=O)Nc2ccc(C(=O)O)cc2)CC1", "note": "(single isomer, unassigned) [Example 55, bis-TFA salt]", "values": [{"measurement": "pKi", "setting": "[1]; [3]", "value": 9.04}, {"measurement": "pKi", "setting": "[2]; [4]", "value": "> 8.30"}]}
{"smiles": "CN(C)C(=O)C1CCN(c2cccc3c2CCN(C(=O)c2cn(-c4cccc(Cl)c4F)nn2)[C@H]3C(=O)Nc2ccc(C(=O)O)cc2)CC1", "note": "(single isomer, unassigned) [Example 57, TFA salt]", "values": [{"measurement": "pKi", "setting": "[1]; [3]", "value": 6.56}, {"measurement": "pKi", "setting": "[2]; [4]", "value": 7.48}]}
{"smiles": "CN(C)C(=O)C1CCN(c2cccc3c2CCN(C(=O)c2cn(-c4cccc(Cl)c4F)nn2)[C@@H]3C(=O)Nc2ccc(C(=O)O)cc2)CC1", "note": "(single isomer, unassigned) [Example 58, TFA salt]", "values": [{"measurement": "pKi", "setting": "[1]; [3]", "value": 8.49}, {"measurement": "pKi", "setting": "[2]; [4]", "value": "> 8.30"}]}
{"smiles": "CN(C)C(=O)C1CCN(c2cccc3c2CCN(C(=O)c2cnn(-c4cccc(Cl)c4F)c2)[C@H]3C(=O)Nc2ccc(C(=O)O)cc2)CC1", "note": "(single isomer, unassigned) [Example 60, TFA salt]", "values": [{"measurement": "pKi", "setting": "[1]; [3]", "value": 6.16}, {"measurement": "pKi", "setting": "[2]; [4]", "value": 7.32}]}
